Measurements reported in article PMC11123991, “Novel 9-Methylanthracene Derivatives as p53 Activators for the Treatment of Glioblastoma Multiforme” (Molecules, 2024).

Columns and labels:
[1] = system: human glioblastoma cell line U87; test: MTT antiproliferative assay in U87 cells; format: cell-based; conditions: for inhibition at 10 µM: read-out: U87 (% Inhib. @ 10 µM); for IC50: mean ± SD (n = 3); for fold decrease in anti-glioma activity: relative to 14a–14c
Procedure: (§1) U87, Hela, MCF-7, and HHL-5 cells were provided by Chinese Academy of Medical Sciences (Beijing, China). The cancer cells were cultured in DMEM media containing 10% heat-inactivated fetal calf serum. All cells were incubated at 37 °C in a 5% CO2 humidified atmosphere and harvested in the exponential growth phase for assays.
(§2) Cells were seeded in a 96-well plate and treated with the test substance at the desired concentration for 72 h. In cytotoxicity experiments, cells were treated with 10 µM of the test compound or 1 µM XI-011 and doxorubicin as positive controls. DMSO (1%) was used as a negative control. In the IC50 analysis, doxorubicin, XI-011, 13d, 13e, 14a, 14b, and, 14n were applied to HHL-5 at 50, 25, 10, 5, 2.5, 1.25, 0.625, 0.3125, and 0.15625 µM and U87 cells at 10, 7.5, 5, […], 1.25, 0.625, 0.3125, and 0.15625 µM, whereas 30, 10, 3, 0.5, and 0.1 µM were applied to Hela and MCF-7 cells. Treated cells were incubated with an MTT solution for 2 h and then with DMSO to dissolve the crystals. Absorbance was determined at 570 nm using a microplate reader (BioTek, Seattle, DC, USA). IC50 values were calculated using the Hill model in GraphPad Prism 8.0.2 software.

[2] = system: HHL-5 human normal cell line; test: MTT cytotoxicity assay in normal HHL-5 cells; format: cell-based; conditions: for IC50: Homo sapiens, HHL-5, normal cell line, 72 h, MTT, mean ± SD (n = 3)
Procedure: as §1, §2

[3] = system: human breast cancer cell line MCF-7; test: MTT antiproliferative assay in MCF-7 cells; format: cell-based; conditions: MCF7, 72 h, mean ± SD (n = 3)
Procedure: as §1, §2

[4] = system: human cervical cancer cell line HeLa; test: MTT antiproliferative assay in HeLa cells; format: cell-based; conditions: for IC50: Homo sapiens, 72 h, MTT, mean ± SD (n = 3)
Procedure: as §1, §2

MDM4 = test: Western blot of MDM4 expression in U87 cells; format: cell-based, human; conditions: U87, 24 h, 0.5, 1 and 2 µM
Procedure: (§3) Protein levels in U87 cells treated with test compound 13e (0.5, 1, and 2 µM) for 24 h were measured by Western blot analysis as described previously. Briefly, after 13e treatment, cells were lysed in RIPA buffer. Proteins were separated by 8% SDS-PAGE and transferred to a PVDF membrane (Millipore, Billerica, MA, USA). The membrane was incubated with an anti-MDM4 antibody (A300-287A, Bethyl Laboratories, Montgomery, TX, USA), anti-p53 antibody (sc-126, Santa Cruz Biotechnology, Inc., Dallas, TX, USA), or anti-GAPDH antibody (AG019, Beyotime, Shanghai, China) followed by an HRP-linked secondary antibody (A0216, Beyotime) for 2 h. ECL reagent was used for chemiluminescent development. Densitometric analysis of protein bands was performed using ImageJ V.1.8.0 software.

U87 cells [5] = test: Flow cytometric cell cycle analysis in U87 cells; format: cell-based, human; conditions: U87, 24 h, 0.5, 1 and 2 µM
Procedure: Cells were cultured for 24 h in a 6-well plate, and then the test compound (0.5, 1, and 2 µM) was added to the culture medium. After treatment for 24 h, the cells were harvested and fixed at 4 °C overnight in an ethanol solution (80%). The cells were washed with PBS and stained with a PI solution ([…] in PBS). After 30 min, the cells were subjected to flow cytometry (C6; BD, Franklin Lakes, NJ, USA). The recorded cell fluorescence was used to analyze the cell cycle distribution.

p53 = test: Western blot of p53 expression in U87 cells; format: cell-based, human; conditions: U87, 24 h, 0.5, 1 and 2 µM
Procedure: as §3

U87 cells [6] = test: Flow cytometric apoptosis analysis in U87 cells; format: cell-based, human; conditions: 24 h
Procedure: Reducing MDM4 expression restores the p53 function and increases apoptotic cells. The apoptotic effects of compound 13e were determined in U87 cells by flow cytometry. […] 13e induced 21% apoptosis at 1 µM, which was slightly lower than the 23% apoptosis induced by XI-011. At 2 µM 13e, apoptosis was up to 25.9%. […] The mechanism by which 13e induces apoptosis in U87 cells may be related to its ability to downregulate MDM4 expression and stabilize p53 protein.

[7] = Homo sapiens, U-87 MG, 72 h, 10 µM, 72 h, MTT, triplicates
[8] = Homo sapiens, U-87 MG, 72 h, MTT

Structure (SMILES): Cc1ccc(CSC(=N)N)c2ccccc12 [12a]
- inhibition at 10 µM [1, 7]: 15.2%

Structure (SMILES): N=C(N)SCc1cccc2ccccc12 [12b]
- inhibition at 10 µM [1, 7]: 9%

Structure (SMILES): Cc1ccc(CSC(=N)N)cc1 [12c]
- inhibition at 10 µM [1, 7]: 11.8%

Structure (SMILES): N=C(N)SCc1ccc([N+](=O)[O-])cc1 [12d]
- inhibition at 10 µM [1, 7]: 14.8%

Structure (SMILES): N=C(N)SCc1ccc2ccccc2c1 [12e]
- inhibition at 10 µM [1, 7]: 1.5%

Structure (SMILES): Cc1ccc(CSC(=N)NN)c2ccccc12 [12f]
- inhibition at 10 µM [1, 7]: 13.1%

Structure (SMILES): N=C(NN)SCc1cccc2ccccc12 [12g]
- inhibition at 10 µM [1, 7]: 14.5%

Structure (SMILES): CNC(=N)SCc1ccc(C)c2ccccc12 [12h]
- inhibition at 10 µM [1, 7]: 9.9%

Structure (SMILES): CC(=O)NC(=N)SCc1ccc(C)c2ccccc12 [12i]
- inhibition at 10 µM [1, 7]: 2.7%

Structure (SMILES): CC(=O)NC(=N)SCc1ccc(C)cc1 [12j]
- inhibition at 10 µM [1, 7]: 6.8%

Structure (SMILES): N=C(NN)SCc1ccc2ccccc2n1 [12k]
- inhibition at 10 µM [1, 7]: 10.7%

Structure (SMILES): CNC(=N)SCc1ccc2ccccc2n1 [12l]
- inhibition at 10 µM [1, 7]: 11.3%

Structure (SMILES): Cc1c2ccccc2c(CSC(=N)NN)c2ccccc12 [13a]
- inhibition at 10 µM [1, 7]: 57.9%
- fold more potency than 12f ([1]; U87 inhibition rate at 10 µM): approximately 4 fold

Structure (SMILES): CC(=O)NC(=N)SCc1c2ccccc2c(C)c2ccccc12 [13b]
- inhibition at 10 µM [1, 7]: 19.3%

Structure (SMILES): Cc1c2ccccc2c(CSC(=N)NC(=N)N)c2ccccc12 [13c]
- inhibition at 10 µM [1, 7]: 35.4%

Structure (SMILES): CNC(=N)SCc1c2ccccc2c(C)c2ccccc12 [13d]
- IC50 ([1]; 72 h, MTT): 1.62 ± 0.02 µM
- inhibition at 10 µM [1, 7]: 93.3%
- IC50 [1, 8]: < 2 µM
- IC50 [2]: 0.85 ± 0.1 µM
- IC50 [3]: 4.74 ± 0.2 µM
- IC50 [4]: 5.66 ± 0.29 µM

Structure (SMILES): Cc1c2ccccc2c(CSC(=N)N(C)N)c2ccccc12 [13e]
- inhibition at 10 µM [1, 7]: 88.6%
- fold lesser toxicity to human normal HHL-5 cells than to U87 cells ([2]; HHL-5 IC50 versus U87 IC50): 2 fold
- IC50 [2]: 1.11 ± 0.08 µM
- MDM4 expression (MDM4): dose-dependent suppression of MDM4 expression
- IC50 [3]: 0.97 ± 0.11 µM
- cell cycle effect (U87 cells [5]): arrested U87 cells in G2/M phase
- p53 protein expression (p53): significantly upregulated p53 protein expression
- apoptosis (U87 cells [6]; U87, 1 µM): 21%
- apoptosis (U87 cells [6]; U87, 2 µM): 25.9%
- IC50 [4]: 1.63 ± 0.25 µM

Structure (SMILES): CC(C)=NNC(=N)SCc1c2ccccc2c(C)c2ccccc12 [13f]
- inhibition at 10 µM [1, 7]: 65.1%
- fold potency improvement in U87 cells compared with aryl-derived compounds ([1]; U87 inhibition rate at 10 µM): 3–4 fold

Structure (SMILES): Cc1c2ccccc2c(CSc2ncc[nH]2)c2ccccc12 [13g]
- inhibition at 10 µM [1, 7]: 41.2%

Structure (SMILES): Cc1c2ccccc2c(CSC2=NC(=O)CC(=O)N2)c2ccccc12 [13h]
- inhibition at 10 µM [1, 7]: 0.7%

Structure (SMILES): CCOC(=O)c1cnc(SCc2c3ccccc3c(C)c3ccccc23)[nH]1 [13i]
- inhibition at 10 µM [1, 7]: 31.2%

Structure (SMILES): Cc1c2ccccc2c(CSC(=N)Nc2ccccc2)c2ccccc12 [13j]
- inhibition at 10 µM [1, 7]: 13.3%

Structure (SMILES): Cc1c2ccccc2c(CS/C(=N\c2ccccc2)Nc2ccccc2)c2ccccc12 [13k]
- inhibition at 10 µM [1, 7]: 28.1%

Structure (SMILES): CCCCCCNC(=N)SCc1c2ccccc2c(C)c2ccccc12 [13l]
- inhibition at 10 µM [1, 7]: 86.7%
- fold potency improvement in U87 cells compared with aryl-derived compounds ([1]; U87 inhibition rate at 10 µM): 3–4 fold

Structure (SMILES): CCc1c2ccccc2c(CSC(=N)N)c2ccccc12 [14a]
- IC50 ([1]; 72 h, MTT): 1.24 ± 0.24 µM
- inhibition at 10 µM [1, 7]: 79%
- IC50 [1, 8]: < 2 µM
- IC50 [2]: 1.51 ± 0.16 µM
- IC50 [3]: 4.56 ± 0.03 µM
- IC50 [4]: 3.64 ± 0.27 µM

Structure (SMILES): CCc1c2ccccc2c(CSC(=N)NC)c2ccccc12 [14b]
- IC50 ([1]; 72 h, MTT): 1.35 ± 0.1 µM
- inhibition at 10 µM [1, 7]: 94.7%
- IC50 [1, 8]: < 2 µM
- IC50 [2]: 1.62 ± 0.13 µM
- IC50 [3]: 4.55 ± 0.27 µM
- IC50 [4]: 2.66 ± 0.19 µM

Structure (SMILES): CCc1c2ccccc2c(CSC(=N)N(C)N)c2ccccc12 [14c]
- inhibition at 10 µM [1, 7]: 83.6%

Structure (SMILES): CCc1c2ccccc2c(CSC(=N)NC(=N)N)c2ccccc12 [14d]
- inhibition at 10 µM [1, 7]: 17.3%
- fold decrease in anti-glioma activity ([1]; U87 inhibition rate at 10 µM): 3~4 fold

Structure (SMILES): CCc1c2ccccc2c(CSC(=N)NC(C)=O)c2ccccc12 [14e]
- inhibition at 10 µM [1, 7]: 19.3%
- fold decrease in anti-glioma activity ([1]; U87 inhibition rate at 10 µM): 3~4 fold

Structure (SMILES): CCCCCCNC(=N)SCc1c2ccccc2c(CC)c2ccccc12 [14f]
- inhibition at 10 µM [1, 7]: 43.6%
- fold decrease in anti-glioma activity ([1]; U87 inhibition rate at 10 µM): 3~4 fold

Structure (SMILES): CCc1c2ccccc2c(CSC(=N)Nc2ccc(C(F)(F)F)cc2)c2ccccc12 [14g]
- inhibition at 10 µM [1, 7]: 28%
- fold decrease in anti-glioma activity ([1]; U87 inhibition rate at 10 µM): 3~4 fold

Structure (SMILES): CCCc1c2ccccc2c(CSC(=N)N)c2ccccc12 [14h]
- inhibition at 10 µM [1, 7]: 64.6%

Structure (SMILES): CNC(=N)SCc1c2ccccc2cc2ccccc12 [14i]
- U87 (% Inhib. @ 10 µM) ([1]; 10 µM, 72 h, MTT, triplicates): 76.4%
- inhibition at 10 µM [1, 7]: 83%

Structure (SMILES): N=C(NN)SCc1c2ccccc2cc2ccccc12 [14j]
- inhibition at 10 µM [1, 7]: 11.8%

Structure (SMILES): CC(C)=NNC(=N)SCc1c2ccccc2cc2ccccc12 [14k]
- inhibition at 10 µM [1, 7]: 14.2%

Structure (SMILES): CC(=O)NC(=N)SCc1c2ccccc2cc2ccccc12 [14l]
- inhibition at 10 µM [1, 7]: 0.7%

Structure (SMILES): N=C(N)SCc1c2ccccc2c(Br)c2ccccc12 [14m]
- inhibition at 10 µM [1, 7]: 36.8%

Structure (SMILES): CNC(=N)SCc1c2ccccc2c(Br)c2ccccc12 [14n]
- IC50 ([1]; 72 h, MTT): 1.84 ± 0.12 µM
- inhibition at 10 µM [1, 7]: 86.5%
- IC50 [1, 8]: < 2 µM
- IC50 [2]: 1.67 ± 0.16 µM
- IC50 [3]: 7.6 ± 1.37 µM
- IC50 [4]: 7.74 ± 0.81 µM
- fold reduction in anti-cervical cancer activity ([4]; bromo versus methyl and ethyl analogs (14a, 14b, XI-011)): 1–2 fold

Structure (SMILES): N=C(NN)SCc1c2ccccc2c(Br)c2ccccc12 [14o]
- inhibition at 10 µM [1, 7]: 50.7%

Structure (SMILES): N=C(NN)SCc1c2ccccc2nc2ccccc12 [14p]
- inhibition at 10 µM [1, 7]: 19%

Structure (SMILES): N=C(N)SCc1c2ccccc2nc2ccccc12 [14q]
- inhibition at 10 µM [1, 7]: 12.5%

Structure (SMILES): CCCCCCNC(=N)SCc1c2ccccc2nc2ccccc12 [14r]
- inhibition at 10 µM [1, 7]: 2.1%

Structure (SMILES): N=C(N)SC1c2ccccc2CCc2ccccc21 [14s]
- inhibition at 10 µM [1, 7]: 6.9%
- fold less potency than XI-011 ([1]; U87 inhibition rate at 10 µM): approximately 12 fold

Structure (SMILES): COc1cccc2c1C(=O)c1c(O)c3c(c(O)c1C2=O)C[C@@](O)(C(=O)CO)C[C@@H]3O[C@H]1C[C@H](N)[C@H](O)[C@H](C)O1 [DOX, doxorubicin, reference compound]
- inhibition at 10 µM [1, 7]: 81.1%
- IC50 [1, 8]: 0.44 ± 0.06 µM
- IC50 [2]: 0.32 ± 0.02 µM
- IC50 [3]: 1.32 ± 0.16 µM
- IC50 [4]: 0.54 ± 0.05 µM

Structure (SMILES): Cc1c2ccccc2c(CSC(=N)N)c2ccccc12 [XI-011, (10-methylanthracen-9-yl)methyl carbamimidothioate, reference compound]
- inhibition at 10 µM [1, 7]: 91.8%
- IC50 [1, 8]: 0.69 ± 0.02 µM
- IC50 [2]: 0.55 ± 0.03 µM
- IC50 [3]: 4.87 ± 0.3 µM
- apoptosis (U87 cells [6]; U87, 1 µM): 23%
- IC50 [4]: 1.51 ± 0.06 µM
